Laboratory results taken from patent US20110034369A1, “Agonists of Bitter Taste Receptors and Uses Thereof” (DEUTSCHES INSTITUT FUR ERNAHRUNGSFORSCHUNG POTSDAM-REHBRUCKE, priority 2004, published 2011).

Key:
Format in all cases: cell-based
hTAS2R1 = target: T1, hTAS2R1 (Homo sapiens, UniProt Q9NYW7); experiment: FLIPR calcium mobilization, hTAS2R1-transfected HEK-293T/Gα16gust44 cells; conditions: response of hTAS2R1, calcium signal; for threshold: Fluo4-AM, transiently transfected HEK-293T Gα16gust44; for EC50: dose-response
T1 construct: export tag: amino acids 1-45 of rat somatostatin receptor 3 (N); expressed in transfected cells; host or cells: HEK-293T cells stably expressing the chimeric G-protein subunit Galpha16gust44
T1 sequence (Q9NYW7 1-299): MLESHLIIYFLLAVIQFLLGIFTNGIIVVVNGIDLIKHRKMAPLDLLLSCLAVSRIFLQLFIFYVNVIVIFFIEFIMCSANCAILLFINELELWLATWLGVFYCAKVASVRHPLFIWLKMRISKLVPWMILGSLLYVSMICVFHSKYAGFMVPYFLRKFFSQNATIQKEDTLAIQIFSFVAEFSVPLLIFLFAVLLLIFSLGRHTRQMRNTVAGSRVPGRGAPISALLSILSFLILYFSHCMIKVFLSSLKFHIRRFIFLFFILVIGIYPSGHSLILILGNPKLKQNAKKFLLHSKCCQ
Experimental: Ligand screening using an automated fluorometric imaging plate reader (Molecular Devices) was essentially done as described (Bufe B. et al. (2002) Nature Genetics 32: 397-401). Briefly: The cells were seeded at a density of 70,000±10,000 cells per well in 96-well microtiter plates. The cDNA of hTAS2R1, hTASR3, hTASR7 and hTASR40 supplemented with an amino terminal export tag corresponding to amino acids 1-45 of rat somatostatin receptor 3 and a carboxy terminal HSV-tag was transiently transfected into HEK-293T cells stably expressing the chimeric G-protein subunit Gα16gust44 (Ueda T. et al. (2003) J. Neurosci. 23: 7376-7380) using Lipofectamine2000 (Invitrogen). […] 24-32 hours after transfection, the cells were then loaded for 1 hour with the calcium sensitive dye Fluo4-AM (2 μg/ml in DMEM, Molecular Probes). Cells were washed 3× in solution C1 (130 mM NaCl, 5 mM KCl, 10 mM Hepes, 2 mM CaCl2, and 10 mM Glucose, pH 7.4). Calcium mobilization was monitored by an automated fluorometric imaging plate reader (Molecular Devices). Ligands (Sigma-Aldrich) were dissolved in C1 solution. All data were collected from experiments carried out in triplicate. For dose-response curves, the obtained calcium signals were corrected for and normalized to background fluorescence ΔF/F=(F−F0)/F0 and baseline noise was subtracted.

hTAS2R3 = target: T2, hTAS2R3 (Homo sapiens, UniProt Q9NYW6); experiment: FLIPR calcium mobilization, hTAS2R3-transfected HEK-293T/Gα16gust44 cells; conditions: response of hTAS2R3; calcium signal
T2 construct: export tag: amino acids 1-45 of rat somatostatin receptor 3 (N); expressed in transfected cells; host or cells: HEK-293T cells stably expressing the chimeric G-protein subunit Galpha16gust44
T2 sequence (Q9NYW6 1-316): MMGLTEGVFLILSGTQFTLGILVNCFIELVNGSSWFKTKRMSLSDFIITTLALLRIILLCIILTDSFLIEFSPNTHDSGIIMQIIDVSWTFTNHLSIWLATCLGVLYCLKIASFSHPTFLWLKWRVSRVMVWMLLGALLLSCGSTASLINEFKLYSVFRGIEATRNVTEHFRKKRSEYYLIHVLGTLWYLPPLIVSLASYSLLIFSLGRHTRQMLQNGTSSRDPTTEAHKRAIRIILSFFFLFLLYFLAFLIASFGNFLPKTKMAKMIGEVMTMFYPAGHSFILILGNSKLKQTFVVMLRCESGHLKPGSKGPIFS
Experimental: (§1) Ligand screening using an automated fluorometric imaging plate reader (Molecular Devices) was essentially done as described (Bufe B. et al. (2002) Nature Genetics 32: 397-401). Briefly: The cells were seeded at a density of 70,000±10,000 cells per well in 96-well microtiter plates. The cDNA of hTAS2R1, hTASR3, hTASR7 and hTASR40 supplemented with an amino terminal export tag corresponding to amino acids 1-45 of rat somatostatin receptor 3 and a carboxy terminal HSV-tag was transiently transfected into HEK-293T cells stably expressing the chimeric G-protein subunit Gα16gust44 (Ueda T. et al. (2003) J. Neurosci. 23: 7376-7380) using Lipofectamine2000 (Invitrogen). Expression rates were determined to be 20% for hTAS2R1; 35% for hTAS2R3, 14% for hTAS2R7 and 29% for hTAS2R40 by indirect immunocyclochemistry using monoclonal anti-HSV antibodies (Novagen) and secondary anti-mouse IgG antibodies coupled to Alexa 488 (Molecular probes) see (FIG. 1). 24-32 hours after transfection, the cells were then loaded for 1 hour with the calcium sensitive dye Fluo4-AM (2 μg/ml in DMEM, Molecular Probes). […] Calcium mobilization was monitored by an automated fluorometric imaging plate reader (Molecular Devices). […] For dose-response curves, the obtained calcium signals were corrected for and normalized to background fluorescence ΔF/F=(F−F0)/F0 and baseline noise was subtracted.

hTAS2R7 = target: T3, hTAS2R7 (Homo sapiens, UniProt Q9NYW3); experiment: FLIPR calcium mobilization, hTAS2R7-transfected HEK-293T/Gα16gust44 cells; conditions: response of hTAS2R7, calcium signal
T3 construct: export tag: amino acids 1-45 of rat somatostatin receptor 3 (N); expressed in transfected cells; host or cells: HEK-293T cells stably expressing the chimeric G-protein subunit Galpha16gust44
T3 sequence (Q9NYW3 1-318): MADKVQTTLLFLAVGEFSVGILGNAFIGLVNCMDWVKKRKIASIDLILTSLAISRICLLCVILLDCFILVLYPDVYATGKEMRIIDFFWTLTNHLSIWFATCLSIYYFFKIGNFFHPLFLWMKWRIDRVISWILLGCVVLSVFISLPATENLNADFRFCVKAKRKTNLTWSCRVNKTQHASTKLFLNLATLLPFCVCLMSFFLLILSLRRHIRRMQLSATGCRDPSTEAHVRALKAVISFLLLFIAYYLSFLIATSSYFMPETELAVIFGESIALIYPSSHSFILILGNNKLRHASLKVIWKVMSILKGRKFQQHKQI
Experimental: Ligand screening using an automated fluorometric imaging plate reader (Molecular Devices) was essentially done as described (Bufe B. et al. (2002) Nature Genetics 32: 397-401). Briefly: The cells were seeded at a density of 70,000±10,000 cells per well in 96-well microtiter plates. The cDNA of hTAS2R1, hTASR3, hTASR7 and hTASR40 supplemented with an amino terminal export tag corresponding to amino acids 1-45 of rat somatostatin receptor 3 and a carboxy terminal HSV-tag was transiently transfected into HEK-293T cells stably expressing the chimeric G-protein subunit Gα16gust44 (Ueda T. et al. (2003) J. Neurosci. 23: 7376-7380) using Lipofectamine2000 (Invitrogen). Expression rates were determined to be 20% for hTAS2R1; 35% for hTAS2R3, 14% for hTAS2R7 and 29% for hTAS2R40 by indirect immunocyclochemistry using monoclonal anti-HSV antibodies (Novagen) and secondary anti-mouse IgG antibodies coupled to Alexa 488 (Molecular probes) see (FIG. 1). 24-32 hours after transfection, the cells were then loaded for 1 hour with the calcium sensitive dye Fluo4-AM (2 μg/ml in DMEM, Molecular Probes). Cells were washed 3× in solution C1 (130 mM NaCl, 5 mM KCl, 10 mM Hepes, 2 mM CaCl2, and 10 mM Glucose, pH 7.4). Calcium mobilization was monitored by an automated fluorometric imaging plate reader (Molecular Devices). Ligands (Sigma-Aldrich) were dissolved in C1 solution. All data were collected from experiments carried out in triplicate. For dose-response curves, the obtained calcium signals were corrected for and normalized to background fluorescence ΔF/F=(F−F0)/F0 and baseline noise was subtracted.

hTAS2R40 = target: T4, hTAS2R40 (Homo sapiens, UniProt P59535); experiment: FLIPR calcium mobilization, hTAS2R40-transfected HEK-293T/Gα16gust44 cells; conditions: response of hTAS2R40; calcium signal
T4 construct: export tag: amino acids 1-45 of rat somatostatin receptor 3 (N); expressed in transfected cells; host or cells: HEK-293T cells stably expressing the chimeric G-protein subunit Galpha16gust44
Experimental: as §1

T4 sequence (P59535 whole entry, the tested form may be a part): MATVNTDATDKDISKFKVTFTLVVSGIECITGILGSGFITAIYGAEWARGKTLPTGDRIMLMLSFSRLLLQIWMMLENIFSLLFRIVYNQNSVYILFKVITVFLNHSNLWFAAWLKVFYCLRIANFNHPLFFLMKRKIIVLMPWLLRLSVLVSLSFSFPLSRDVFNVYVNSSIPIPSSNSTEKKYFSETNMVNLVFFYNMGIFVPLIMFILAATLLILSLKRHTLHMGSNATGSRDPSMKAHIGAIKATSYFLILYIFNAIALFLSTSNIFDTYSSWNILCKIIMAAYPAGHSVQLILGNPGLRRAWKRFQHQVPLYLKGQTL

max. amplitude (hTAS2R1) [counts] | threshold (hTAS2R1) [mM] | EC50 (hTAS2R1) [µM] | Compound | max. amplitude (hTAS2R7) [counts] | threshold (hTAS2R7) [mM] | also measured
9000 | ~0.1 | 200 | O=C(N[C@H](CO)[C@H](O)c1ccc([N+](=O)[O-])cc1)C(Cl)Cl [Chloramphenicol, chloramphenicol] | – | – | –
– | – | – | CN1CC(=O)NC1=N [Creatinine, creatinine] | 3000 | ~10 | max. amplitude (hTAS2R3): 5000 counts; threshold (hTAS2R3): ~30 mM
– | – | – | O=C(O)c1cc(=O)c2c(OCC(O)COc3cccc4oc(C(=O)O)cc(=O)c34)cccc2o1 [Cromolyn, cromolyn] | 3000 | ~1 | EC50 (hTAS2R7; dose-response): 9000 µM
3000 | ~0.03 | – | COC(=O)[C@@H]1[C@H]2C[C@H]3c4[nH]c5ccccc5c4CCN3C[C@@H]2CC[C@@H]1O [Yohimbine, yohimbine] | – | – | –
9000 | ~0.0001 | 0.9 | humulone | – | – | max. amplitude (hTAS2R40): 6000 counts; threshold (hTAS2R40): <0.00003 mM

Compound | max. amplitude (hTAS2R1) [counts] | threshold (hTAS2R1) [mM] | EC50 (hTAS2R1) [µM] | max. amplitude (hTAS2R7) [counts] | threshold (hTAS2R7) [mM] | also measured
C=C(C)[C@@H]1[C@H]2OC(=O)[C@@H]1[C@]1(O)C[C@H]3O[C@]34C(=O)O[C@H]2[C@]14C [Picrotoxinin, picrotoxinin] | 2000 | ~0.0001 | – | – | – | –
